For 17 molecules, EC50 results are on record in patent US8791108B2, “Inhibitors of human immunodeficiency virus replication” (priority 2011, dated 2014).

The subject of this assay is recombinant NL-Rluc virus. Briefly: Inhibition of HIV replication (NL-RLuc luciferase reporter virus, MT-2 cells). It is filed as cell-based.
Setting [1] is: Human immunodeficiency virus 1, MT2, 120 h, read-out: Activity.

Where two headings read alike, the source gives them in different places.

As to `Cc1nc2cc(C(=O)NCc3cccc(Cl)c3Cl)nn2c(-c2cc(F)c3c(c2C)CCCO3)c1[C@H](OC(C)(C)C)C(=O)O` [Example 117, (2S)-2-(tert-butoxy)-2-(2-((2,3-dichlorobenzyl)carbamoyl)-7-(8-fluoro-5-methylchroman-6-yl)-5-methylpyrazolo[1,5-a]pyrimidin-6-yl)acetic acid], the EC50 under setting [1] is under 0.1 µM.

Take `Cc1nc2cc(C(=O)NCC34CC5C[C@H](C3)C(O)[C@H](C5)C4)nn2c(-c2cc(F)c3c(c2C)CCCO3)c1[C@H](OC(C)(C)C)C(=O)O` (stereo partly drawn) [Example 135, (2S)-2-(tert-butoxy)-2-(7-(8-fluoro-5-methylchroman-6-yl)-2-((((1R,3R,4S,5R,7S)-4-hydroxyadamantan-1-yl)methyl)carbamoyl)-5-methylpyrazolo[1,5-a]pyrimidin-6-yl)acetic acid]: the EC50 (NL-RLuc virus in MT-2 cells, 5 days of incubation, luciferase readout, serum condition not given, read-out: Activity) lay within 0.1 to 1 µM.

As for `Cc1nc2cc(C(=O)N(C)CCc3ccccc3)nn2c(-c2cc(F)c3c(c2C)CCCO3)c1[C@H](OC(C)(C)C)C(=O)O` [Example 96, (2S)-2-(tert-butoxy)-2-(7-(8-fluoro-5-methylchroman-6-yl)-5-methyl-2-(methyl(phenethyl)carbamoyl)pyrazolo[1,5-a]pyrimidin-6-yl)acetic acid], the EC50 by setting is: under setting [1], under 0.1 µM; (Human immunodeficiency virus 1, MT2, 120 h, read-out: EC50 μM) 0.077 µM.

As to `Cc1nc2cc(C(=O)NCc3ccc(F)cc3O)nn2c(-c2cc(F)c3c(c2C)CCCO3)c1[C@H](OC(C)(C)C)C(=O)O` [Example 63, (2S)-2-(tert-butoxy)-2-(2-((4-fluoro-2-hydroxybenzyl)carbamoyl)-7-(8-fluoro-5-methylchroman-6-yl)-5-methylpyrazolo[1,4-a]pyrimidin-6yl)acetic acid], under setting [1], the EC50 is under 0.1 µM.

Consider `Cc1nc2cc(C(=O)N(C)Cc3ccc(F)cc3)nn2c(-c2cc(F)c3c(c2C)CCCO3)c1[C@H](OC(C)(C)C)C(=O)O` [Example 8, (2S)-2-(tert-butoxy)-2-(7-(8-fluoro-5-methylchroman-6-yl)-2-((4-fluorobenzyl)(methyl)carbamoyl)-5-methylpyrazolo[1,5-a]pyrimidin-6-yl)acetic acid], for which, under setting [1], the EC50 is under 0.1 µM.

Take `Cc1nc2cc(C(=O)NCC3CCN(C(=O)OC(C)(C)C)CC3)nn2c(-c2cc(F)c3c(c2C)CCCO3)c1[C@H](OC(C)(C)C)C(=O)O` [Example 59, (2S)-2-(tert-butoxy)-2-(2-(((1-(tert-butoxycarbonyl)piperidin-4-yl)methyl)carbamoyl)-7-(8-fluoro-5-methylchroman-6-yl)-5-methylpyrazolo[1,5-a]pyrimidin-6-yl)acetic acid]: the EC50 under setting [1] is 0.1 to 1 µM.

For the molecule `COc1ccc(CCNC(=O)c2cc3nc(C)c([C@H](OC(C)(C)C)C(=O)O)c(-c4cc(F)c5c(c4C)CCCO5)n3n2)cc1` [Example 65, (2S)-2-(tert-butoxy)-2-(7-(8-fluoro-5-methylchroman-6-yl)-2-((4-methoxyphenethyl)carbamoyl)-5-methylpyrazolo[1,5-a]pyrimidin-6-yl)acetic acid], the EC50 under setting [1] was under 0.1 µM.

`Cc1nc2cc(C(=O)N3CCC(c4ccc(F)cc4)CC3)nn2c(-c2cc(F)c3c(c2C)CCCO3)c1[C@H](OC(C)(C)C)C(=O)O` (atropisomer, axis not shown) [Example 138, (S)-2-(tert-Butoxy)-2-((S)-7-(8-fluoro-5-methylchroman-6-yl)-2-(4-(4-fluorophenyl)piperidine-1-carbonyl)-5-methylpyrazolo[1,5-a]pyrimidin-6-yl)acetic acid]: the EC50 under setting [1] was under 0.1 µM.

Consider `Cc1cc(CNC(=O)c2cc3nc(C)c([C@H](OC(C)(C)C)C(=O)O)c(-c4cc5c(cc4F)OCCN5)n3n2)ccc1F` [Example 145, (2S)-2-(tert-Butoxy)-2-(7-(7-fluoro-3,4-dihydro-2H-benzo[b][1,4]oxazin-6-yl)-2-((4-fluoro-3-methylbenzyl)carbamoyl)-5-methylpyrazolo[1,5-a]pyrimidin-6-yl)acetic acid], for which the EC50 under setting [1] was under 0.1 µM.

Consider `CON(Cc1ccc(F)cc1)C(=O)c1cc2nc(C)c([C@H](OC(C)(C)C)C(=O)O)c(-c3cc(F)c4c(c3C)CCCO4)n2n1` [Example 17, (2S)-2-(tert-butoxy)-2-(7-(8-fluoro-5-methylchroman-6-yl)-2-((4-fluorobenzyl)(methoxy)carbamoyl)-5-methylpyrazolo[1,5-a]pyrimidin-6-yl)acetic acid], for which the EC50 under setting [1] was under 0.1 µM.

Take `Cc1nc2cc(C(=O)NCc3ccc(Cl)cc3)nn2c(-c2cc(F)c3c(c2C)CCCO3)c1[C@H](OC(C)(C)C)C(=O)O` [Example 46, (2S)-2-(tert-butoxy)-2-(2((4-chlorobenzyl)carbamoyl)-7-(8-fluoro-5-methylchroman-6-yl)-5-methylpyrazolo[1,5-a]pyrimidin-6-yl)acetic acid]: the EC50 under setting [1] was under 0.1 µM.

Consider `Cc1nc2cc(C(=O)NCCc3ccccc3)nn2c(-c2cc(F)c3c(c2C)CCCO3)c1[C@H](OC(C)(C)C)C(=O)O` [Example 48, (2S)-2-(tert-butoxy)-2-(7-(8-fluoro-5-methylchroman-6-yl)-5-methyl-2-(phenethylcarbamoyl)pyrazolo[1,5-a]pyrimidin-6-yl)acetic acid], for which, under setting [1], the EC50 is under 0.1 µM.

As for `Cc1nc2cc(C(=O)NCCC(C)C)nn2c(-c2cc(F)c3c(c2C)CCCO3)c1[C@H](OC(C)(C)C)C(=O)O` [Example 49, (2S)-2-(tert-butoxy)-2-(7-(8-fluoro-5-methylchroman-6-yl)-2-(isopentylcarbamoyl)-5-methylpyrazolo[1,5-a]pyrimidin-6-yl)acetic acid], the EC50 under setting [1] is under 0.1 µM.

Regarding `Cc1ccc(CNC(=O)c2cc3nc(C)c([C@H](OC(C)(C)C)C(=O)O)c(-c4cc(F)c5c(c4C)CCCO5)n3n2)cc1F` [Example 60, (2S)-2-(tert-butoxy)-2-(2-((3-fluoro-4-methylbenzyl)carbamoyl)-7-(8-fluoro-5-methylchroman-6-yl)-5-methylpyrazolo[1,5-a]pyrimidin-6-yl)acetic acid], the EC50 under setting [1] is under 0.1 µM.

In the case of `Cc1nc2cc(C(=O)N(C)Cc3ccc(Cl)c(Cl)c3)nn2c(-c2cc(F)c3c(c2C)CCCO3)c1[C@H](OC(C)(C)C)C(=O)O` [Example 115, (2S)-2-(tert-butoxy)-2-(2-((3,4-dichlorobenzyl)(methyl)carbamoyl)-7-(8-fluoro-5-methylchroman-6-yl)-5-methylpyrazolo[1,5-a]pyrimidin-6-yl)acetic acid], the EC50 under setting [1] was under 0.1 µM.

With `Cc1nc2cc(C(=O)NCc3ccc(Cl)c(Cl)c3)nn2c(-c2cc(F)c3c(c2C)CCCO3)c1[C@H](OC(C)(C)C)C(=O)O` [Example 109, (2S)-2-(tert-butoxy)-2-(2-((3,4-dichlorobenzyl)carbamoyl)-7-(8-fluoro-5-methylchroman-6-yl)-5-methylpyrazolo[1,5-a]pyrimidin-6-yl)acetic acid], the EC50 under setting [1] was under 0.1 µM.

As to `Cc1nc2cc(C(=O)NCCN3CCCC3)nn2c(-c2cc(F)c3c(c2C)CCCO3)c1[C@H](OC(C)(C)C)C(=O)O` [Example 75, (2S)-2-(tert-butoxy)-2-(7-(8-fluoro-5-methylchroman-6-yl)-5-methyl-2-((2-(pyrrolidin-1-yl)ethyl)carbamoyl)pyrazolo[1,5-a]pyrimidin-6-yl)acetic acid], the EC50 under setting [1] was over 1 µM.
